Consider seven compounds from article PMC7693203 (Epilepsia, 2020).

Series [1] concerns the target T1, CYP3A4 (Homo sapiens, UniProt P08684).
The conditions of series [2]: cited from earlier work; for decrease in AUCtau with concomitant CBD / decrease in C max with concomitant CBD: patients with epilepsy on stable VPA.
For series [3] the following is noted: patients with epilepsy on stable CLB; result in words; cited from earlier work.
For series [4] the following is noted: healthy volunteers, cited from earlier work; for increase in AUCtau with concomitant CBD / increase in C max with concomitant CBD: steady-state ASD.
The target in series [5] is T1, CYP3A4. Kind of series: clinical. The settings on record: in vivo.
The conditions of series [6]: trial 17074; after CBD alone, during RIF treatment, or after CBD and RIF; of 16.
For series [7] the following is noted: cited from earlier work.
In series [8] the target is T1, CYP3A4. The conditions noted are these: result in words; cited from earlier work.
The target in series [9] is CYP2C19 (Homo sapiens, UniProt P33261). The settings on record: result in words; cited from earlier work.
Sequence of CYP2C19 (P33261 whole entry): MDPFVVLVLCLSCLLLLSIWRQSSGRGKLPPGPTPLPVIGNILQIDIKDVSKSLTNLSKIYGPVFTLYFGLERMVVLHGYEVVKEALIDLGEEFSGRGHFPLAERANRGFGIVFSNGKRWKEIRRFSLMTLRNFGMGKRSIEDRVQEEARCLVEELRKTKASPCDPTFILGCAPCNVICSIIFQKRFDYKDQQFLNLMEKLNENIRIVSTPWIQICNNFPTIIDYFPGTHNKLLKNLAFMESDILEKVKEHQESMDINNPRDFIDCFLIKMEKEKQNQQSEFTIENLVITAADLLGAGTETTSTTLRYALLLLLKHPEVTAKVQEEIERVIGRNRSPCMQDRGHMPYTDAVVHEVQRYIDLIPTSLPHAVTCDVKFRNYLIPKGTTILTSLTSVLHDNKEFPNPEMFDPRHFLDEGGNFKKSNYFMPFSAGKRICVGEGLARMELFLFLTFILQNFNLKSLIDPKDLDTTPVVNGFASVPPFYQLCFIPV

Each structure is given as a SMILES string. Read-outs that look alike come from different tables or passages of the source. Marks after values point to notes of the source that are not given here.

T1 sequence (P08684 whole entry): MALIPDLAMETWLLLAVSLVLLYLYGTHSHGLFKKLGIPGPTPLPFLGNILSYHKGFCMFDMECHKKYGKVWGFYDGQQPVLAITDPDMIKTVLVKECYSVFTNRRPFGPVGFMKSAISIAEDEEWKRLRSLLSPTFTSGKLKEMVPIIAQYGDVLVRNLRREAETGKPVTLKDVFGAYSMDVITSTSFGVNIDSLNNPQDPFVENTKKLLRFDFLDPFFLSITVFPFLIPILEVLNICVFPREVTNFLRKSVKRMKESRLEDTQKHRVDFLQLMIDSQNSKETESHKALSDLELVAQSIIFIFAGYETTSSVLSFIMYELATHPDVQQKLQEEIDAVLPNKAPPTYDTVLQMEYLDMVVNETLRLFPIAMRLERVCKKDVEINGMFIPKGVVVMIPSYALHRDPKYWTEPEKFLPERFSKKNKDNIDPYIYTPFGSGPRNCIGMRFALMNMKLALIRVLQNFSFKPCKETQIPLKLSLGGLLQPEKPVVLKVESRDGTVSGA

For the compound `OCc1ncc2n1-c1ccc(Cl)cc1C(c1ccccc1F)=NC2` [1′‐OH‐MDZ, 1′‐hydroxymidazolam], the t max in series [1] (MDZ + CBD (steady-state CBD 750 mg BID), median (min‐max)) is listed as 3.00 (0.50‐5.02) ^e h. For the same compound, in [1] (MDZ + placebo, MDZ 2.5 mg single dose, arithmetic mean (CV%)), the “t ½” value is listed as 6.11 (39.0) h. Further, the t max in series [1] (MDZ + placebo, median (min‐max)) is on record as 0.50 (0.48‐1.55) ^d h. In series [1] (steady-state CBD), the “increase in AUCtau with concomitant CBD” value was determined as 68%, the “increase in C max with concomitant CBD” value is 12% and the “increase in t ½ with concomitant CBD” value is 35%. For the same compound, in [1] (with concomitant CBD, 90% CI = 1.00‐2.52), the “delay to t max, median of differences” value is 2.25 h.

On to `C=CCC(CCC)C(=O)O` (stereo not shown) [4‐ene‐VPA, 2‐propyl‐4‐pentenoic acid], for which, in [2], the “decrease in AUCtau with concomitant CBD” value was 30% and the “decrease in C max with concomitant CBD” value is 23%.

As for `CN1C(=O)CC(=O)N(c2ccccc2)c2cc(Cl)ccc21` [CLB, clobazam], the “effect of concomitant CBD on exposure” value in [3] is reported as “no effect”. Further, in [4], the “increase in AUCtau with concomitant CBD” value is 21% and the “increase in C max with concomitant CBD” value is listed as 20%.

Usually half-life stands for how long it takes for the measured level to halve. Take `Cc1ncc2n1-c1ccc(Cl)cc1C(c1ccccc1F)=NC2` [MDZ, midazolam]: in series [1] (human, in vivo), the t max was 1.00 (0.5‐3.00) h and the “t ½” value is listed as 4.53 (14.5) h. Further, in series [5] (t max), the t max was found to be 0.5 h. The compound also showed a half-life in series [5] (t ½) of 4.99 h.

Regarding `CO[C@H]1/C=C/O[C@@]2(C)Oc3c(C)c(O)c4c(O)c(c(/C=N/N5CCN(C)CC5)c(O)c4c3C2=O)NC(=O)/C(C)=C\C=C\[C@H](C)[C@H](O)[C@@H](C)[C@@H](O)[C@@H](C)[C@H](OC(C)=O)[C@@H]1C` [RIF, rifampicin], the “healthy volunteers reporting AEs” value in series [6] turned out to be 81%.

Regarding `CC(C)(C)C(O)/C=C/c1ccc2c(c1)OCO2` (stereo not shown) [STP, stiripentol], in series [2] (patients with epilepsy), the “increase in AUCtau with concomitant CBD” value is recorded as 30% and the “increase in C max with concomitant CBD” value is on record as 17%. Also, in series [7], the “Plasma protein binding (PPB)” value was 96.1%. Also, in series [8], the “inhibition of CYP3A4” value is listed as “potent inhibitor”. Further, in series [4], the “increase in AUCtau with concomitant CBD” value is reported as 55% and the “increase in C max with concomitant CBD” value was 28%. In addition, the “inhibition of CYP2C19” value in series [9] is listed as “potent inhibitor”.

With `CCCC(CCC)C(=O)O` [VPA, valproate], in [2], the “decrease in AUCtau with concomitant CBD” value is listed as 17% and the “decrease in C max with concomitant CBD” value is 13%. Also, in [7] (result in words), the “PPB when VPA and CBD are combined in vitro” value is recorded as “not affected”. In series [4] (result in words), the “effect of concomitant CBD on exposure” value is recorded as “no effect”.
